Active and inactive are the calls of the source.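 How the source made its calls: active means fusion inhibition of 50% or more at any tested concentration; inactive means the rest.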
Tested on: HeLa-CD4-LTR-beta-gal/HL2/3 cell fusion, beta-gal luminescence
Assay: CXCR4-tropic HIV-1 entry blockers, cell-cell fusion – HeLa-CD4-LTR-beta-gal/HL2/3 cells, beta-gal luminescence, dose response (AID 504367)

Row | Structure (SMILES) | IC50
1 | CS(=O)(=O)C1=NSC2=NC(=O)/C(=C\c3cccn3-c3cc(Cl)cc(Cl)c3)C(=N)N21 | > 100 µM (inactive)
2 | Cc1ccc(-c2ccc(/C=C3\SC(=S)N(CCCC(=O)O)C3=O)o2)cc1 | 4.6 µM
3 | O=C(O)CCCN1C(=O)/C(=C/c2ccc(-c3cccc(C(F)(F)F)c3)o2)SC1=S | > 100 µM (inactive)
4 | O=C(O)c1ccc(C2Nc3ccc(S(=O)(=O)Nc4cc(Cl)ccc4Cl)cc3C3C=CCC32)cc1 (stereo not drawn) | 36.8 µM
5 | COc1cccc(-n2cccc2/C=C2/C(=N)N3C(=NC2=O)SN=C3S(C)(=O)=O)c1 | > 100 µM (inactive)
6 | O=C(O)CCCN1C(=O)/C(=C\c2ccc(-c3ccc(F)cc3)o2)SC1=S | 3.86 µM
7 | O=C(O)c1ccc(C[n+]2c(-c3ccccc3)csc2Nc2ccccc2)cc1 | > 100 µM (inactive)
8 | CS(=O)(=O)C1=NSC2=NC(=O)/C(=C\c3cccn3-c3cccc(Cl)c3)C(=N)N21 | 32.1 µM
9 | COc1ccc(-n2cccc2/C=C2/C(=N)N3C(=NC2=O)SN=C3S(C)(=O)=O)cc1Cl | > 100 µM (inactive)
10 | CS(=O)(=O)C1=NSC2=NC(=O)/C(=C\c3cccn3-c3ccc(Br)cc3)C(=N)N21 | 25.2 µM
11 | O=C(O)CCCN1C(=O)/C(=C\c2ccc(-c3cccc(Cl)c3)o2)SC1=S | 31.8 µM
12 | O=C(O)CCCN1C(=O)/C(=C\c2ccc(-c3ccc(Cl)cc3)o2)SC1=S | 25.2 µM
13 | CCOC(=O)C1=C(C)N=c2sc(=Cc3ccc(OCC(=O)O)cc3)c(=O)n2C1c1cc(OC)c(OC)c(OC)c1 (stereo not drawn) | > 100 µM (inactive)
14 | CS(=O)(=O)C1=NSC2=NC(=O)/C(=C\c3cccn3-c3ccc(Cl)cc3)C(=N)N21 | 67.7 µM
15 | CS(=O)(=O)C1=NSC2=NC(=O)/C(=C\c3cccn3-c3cccc(C(F)(F)F)c3)C(=N)N21 | > 100 µM (inactive)
16 | O=C(O)CCCN1C(=O)/C(=C\c2ccc(-c3ccc(Br)cc3)o2)SC1=S | 0.47 µM

Row | Structure (SMILES) | IC50
17 | CCc1ccc(-n2cccc2/C=C2/C(=N)N3C(=NC2=O)SN=C3S(C)(=O)=O)cc1 | 46 µM
18 | O=C(O)CCC(C(=O)O)N1C(=O)/C(=C\c2ccco2)SC1=S (stereo not drawn) | > 100 µM (inactive)
19 | CCOC(=O)C1=C(C)N=c2sc(=Cc3ccc(OCC(=O)O)cc3)c(=O)n2C1c1ccc(F)cc1 (stereo not drawn) | 77.1 µM
20 | O=C(O)CCCN1C(=O)/C(=C/c2ccc(-c3ccc(Cl)c(Cl)c3)o2)SC1=S | 2.1 µM
21 | CCc1ccc(-c2ccc(/C=C3\SC(=S)N(CCCC(=O)O)C3=O)o2)cc1 | 2.47 µM
22 | CCOC(=O)C1=C(C)N=c2s/c(=C\c3ccc(OCC(=O)O)cc3)c(=O)n2C1c1ccc(Cl)cc1 (stereo not drawn) | 50 µM
23 | COc1ccc(-c2ccc(/C=C3\SC(=S)N(CCCC(=O)O)C3=O)o2)cc1 | 1.66 µM
24 | CS(=O)(=O)C1=NSC2=NC(=O)/C(=C\c3cccn3-c3cccc(F)c3)C(=N)N21 | 62.7 µM
25 | O=C(O)c1ccc([C@@H]2Nc3ccc(S(=O)(=O)Nc4cccc5ccccc45)cc3[C@@H]3C=CC[C@@H]32)cc1 | 39.4 µM
26 | CCOC(=O)C1=C(C)N=c2s/c(=C\c3ccc(OCC(=O)O)cc3)c(=O)n2C1c1ccc(OC)c(OCC)c1 (stereo not drawn) | 27.7 µM
27 | CCOc1ccc(-n2cccc2/C=C2/C(=N)N3C(=NC2=O)SN=C3S(C)(=O)=O)cc1 | 99.9 µM
28 | CS(=O)(=O)C1=NSC2=NC(=O)/C(=C\c3cccn3-c3ccc(F)cc3)C(=N)N21 | 58.1 µM
29 | O=C(O)c1ccc(C[n+]2c(-c3ccc([N+](=O)[O-])cc3)csc2Nc2ccccc2)cc1 | > 100 µM (inactive)
30 | CS(=O)(=O)C1=NSC2=NC(=O)/C(=C\c3cccn3-c3ccc(Cl)c(Cl)c3)C(=N)N21 | 44.5 µM
31 | COc1ccccc1NS(=O)(=O)c1ccc2c(c1)C1C=CCC1C(c1ccc(C(=O)O)cc1)N2 (stereo not drawn) | 18.4 µM

Results, then the compound that gave them:

Row | IC50 | Structure (SMILES)
32 | 43.6 µM | Cc1c2c(=O)n(-c3nc4ccccc4s3)nc-2cc(O)n1CCc1ccc(O)cc1
33 | 29.5 µM | Cc1c2c(=O)n(-c3nc4ccccc4s3)nc-2cc(O)n1Cc1ccccc1Cl
34 | > 100 µM (inactive) | CCOC(=O)C1=C(C)N=c2sc(=Cc3ccc(OCC(=O)O)cc3)c(=O)n2C1c1ccccc1OC (stereo not drawn)
35 | > 100 µM (inactive) | CCOC(=O)C1=C(C)N=c2sc(=Cc3ccc(OCC(=O)O)cc3)c(=O)n2C1c1ccc(OC)cc1OC (stereo not drawn)
36 | 49.2 µM | COc1ccc(Cn2c(O)cc3nn(-c4nc5ccccc5s4)c(=O)c-3c2C)cc1
37 | 39.9 µM | Cc1ccc(-n2cccc2/C=C2/C(=N)N3C(=NC2=O)SN=C3S(C)(=O)=O)cc1
38 | 21.4 µM | Cc1ccc(-n2cccc2/C=C2/C(=N)N3C(=NC2=O)SN=C3S(C)(=O)=O)cc1C
39 | 42.2 µM | COc1ccccc1Cn1c(O)cc2nn(-c3nc4ccccc4s3)c(=O)c-2c1C
40 | 48.4 µM | CC1=C(C(=O)OC(C)C)C(c2ccc(Cl)cc2)n2c(s/c(=C\c3ccc(OCC(=O)O)cc3)c2=O)=N1 (stereo not drawn)
41 | > 100 µM (inactive) | Cc1c2c(=O)n(-c3nc4ccccc4s3)nc-2cc(O)n1Cc1cccnc1
42 | > 100 µM (inactive) | Nc1sc2ccccc2[n+]1Cc1ccc(C(=O)O)cc1
43 | 50.1 µM | Cc1c2c(=O)n(-c3nc4ccccc4s3)nc-2cc(O)n1Cc1cccs1
44 | > 100 µM (inactive) | COc1cccc(C2C(C(=O)Nc3ccccc3)=C(C)N=c3sc(=Cc4ccc(OCC(=O)O)cc4)c(=O)n32)c1 (stereo not drawn)
45 | 60.4 µM | Cc1c2c(=O)n(-c3nc4ccccc4s3)nc-2cc(O)n1C1CC1
46 | 35.9 µM | COc1ccc(CCn2c(O)cc3nn(-c4nc5ccccc5s4)c(=O)c-3c2C)cc1
47 | 55.3 µM | Cc1c2c(=O)n(-c3nc4ccccc4s3)nc-2cc(O)n1Cc1ccc(F)cc1
48 | 40 µM | Cc1c2c(=O)n(-c3nc4ccccc4s3)nc-2cc(O)n1CCC(C)C
49 | > 100 µM (inactive) | Cc1c2c(=O)n(-c3nc4ccccc4s3)nc-2cc(O)n1Cc1ccncc1
50 | > 100 µM (inactive) | Cc1c2c(=O)n(-c3nc4ccccc4s3)nc-2cc(O)n1CCc1cccs1
51 | > 100 µM (inactive) | CCOC(=O)C1=C(C)N=c2sc(=Cc3ccc(OCC(=O)O)cc3)c(=O)n2C1c1ccccc1 (stereo not drawn)
52 | > 100 µM (inactive) | O=C(O)CCCN1C(=O)/C(=C/c2cc3ccccc3o2)SC1=S
53 | 23.3 µM | CCOC(=O)C1=C(c2ccccc2)N=c2s/c(=C\c3ccc(OCC(=O)O)cc3)c(=O)n2C1c1cccc(OC)c1 (stereo not drawn)

From PubChem BioAssay AID504367 (Southern Research Specialized Biocontainment Screening …, 2011)
